The text below walks through data of patent publication US10689383B2, “Optionally fused heterocyclyl-substituted derivatives of pyrimidine useful for the treatment of inflammatory, metabolic, oncologic and autoimmune diseases” (NUEVOLUTION A/S, priority 2014, dated 2020).

Assay [1] has as its target T1, human RORγt (Ligand Binding Domain) (Homo sapiens, UniProt P51449).
T1 construct: purchased Crelux (Planegg, Germany) batch no PC5032-1
T1 sequence (P51449 269-508 limits assumed): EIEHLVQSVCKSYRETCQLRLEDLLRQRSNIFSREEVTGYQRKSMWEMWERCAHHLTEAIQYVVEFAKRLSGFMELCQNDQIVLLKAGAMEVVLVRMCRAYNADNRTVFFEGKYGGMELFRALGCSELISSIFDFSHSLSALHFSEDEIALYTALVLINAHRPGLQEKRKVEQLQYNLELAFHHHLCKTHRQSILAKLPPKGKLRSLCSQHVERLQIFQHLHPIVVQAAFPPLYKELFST
Nature of the assay: Fluorescence Polarization (FP) Assay. The settings on record: Fluorescence Polarization (FP) Assay; values given as upper bounds of activity ranges; read-out: FP activity range. The gist of the method: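 Binding to the ligand pocket followed by fluorescence polarization with a TAMRA-tagged RORγt ligand probe of 910 g/mole. Negative control wells received DMSO only.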

Assay [2] addresses T2, yeast Gal4-DNA binding domain fused to the ligand binding domain of human RORγ (Homo sapiens, UniProt P51449).
T2 construct: host or cells: HEK293t
T2 sequence (P51449 269-508 limits assumed): T1 sequence (P51449 269-508 limits assumed)
Nature of the assay: RORγ Reporter Assay (Gal4). The settings on record: values given as lower bounds of ranges; for Gal4 activity range @ 0.1 μM (% inhibition): RORγ Reporter Assay (Gal4) at 0.1 μM; for Gal4 activity range @ 1 μM (% inhibition): RORγ Reporter Assay (Gal4) at 1 μM. It is filed as cell-based. The gist of the method: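 Compound at final 1,000 or 100 nM (0.1% DMSO, triplicate) was added to the transfected HEK293t cells carrying a Gal4-UAS luciferase reporter for 24 h at 37 °C, 10% charcoal-stripped FBS. Activity reduction expressed as percent of vehicle-only luciferase signal.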

Consider `Fc1c(NCC2CCCOC2)ncnc1N1CCC[C@@H]1c1ccc(C(F)(F)F)cc1` (stereo partly drawn) [Example 186, 5-fluoro-N-(tetrahydropyran-3-ylmethyl)-6-[(2R)-2-[4-(trifluoromethyl)phenyl]pyrrolidin-1-yl]pyrimidin-4-amine], for which, in assay [1], the IC50 is under 500 nM. In addition, the “Gal4 activity range @ 0.1 μM (% inhibition)” value in assay [2] is listed as over 0 % inhibition.

Turning to `COCC1(CNc2ncnc(N3CCC[C@@H]3c3ccc(C(F)(F)F)cc3)c2F)CCC1` [Example 188, 5-fluoro-N-[[1-(methoxymethyl)cyclobutyl]methyl]-6-[(2R)-2-[4-(trifluoromethyl)phenyl]pyrrolidin-1-yl]pyrimidin-4-amine], in assay [1], the IC50 was under 500 nM. In assay [2], the “Gal4 activity range @ 0.1 μM (% inhibition)” value is over 0 % inhibition.

With `CNC(=O)Cc1ccc(CNc2ncnc(N3CCC[C@@H]3c3ccc(C(F)(F)F)cc3)c2F)cc1` [Example 189, 2-[4-[[[5-fluoro-6-[(2R)-2-[4-(trifluoromethyl)phenyl]pyrrolidin-1-yl]pyrimidin-4-yl]amino]methyl]phenyl]-N-methyl-acetamide], the IC50 in assay [1] is under 500 nM. Further, in assay [2], the “Gal4 activity range @ 0.1 μM (% inhibition)” value is given as over 20 % inhibition.

On to `Fc1c(NC[C@H]2CC[C@H](Cc3nnn[nH]3)CC2)ncnc1N1CCC[C@@H]1c1ccc(C(F)(F)F)cc1` [Example 190, 5-fluoro-N-[[4-(1H-tetrazol-5-ylmethyl)cyclohexyl]methyl]-6-[(2R)-2-[4-(trifluoromethyl)phenyl]pyrrolidin-1-yl]pyrimidin-4-amine], for which the IC50 in assay [1] was under 500 nM. Moreover, in assay [2], the “Gal4 activity range @ 0.1 μM (% inhibition)” value was over 80 % inhibition and the “Gal4 activity range @ 1 μM (% inhibition)” value is over 80 % inhibition.

Regarding `CC(=O)N1CCC(CNc2ncnc(N3CCC[C@@H]3c3ccc(C(F)(F)F)cc3)c2F)CC1` [Example 191, 1-[4-[[[5-fluoro-6-[(2R)-2-[4-(trifluoromethyl)phenyl]pyrrolidin-1-yl]pyrimidin-4-yl]amino]methyl]-1-piperidyl]ethanone], the IC50 in assay [1] is under 500 nM. In assay [2], the “Gal4 activity range @ 0.1 μM (% inhibition)” value is recorded as over 50 % inhibition and the “Gal4 activity range @ 1 μM (% inhibition)” value is reported as over 80 % inhibition.

Turning to `O=C(O)Cc1ccc(CNc2ncnc(N3CCCC3c3ccc(OC(F)(F)F)cc3)c2F)cc1` (stereo not drawn) [Example 192, 2-[4-[[[5-fluoro-6-[2-[4-(trifluoromethoxy)phenyl]pyrrolidin-1-yl]pyrimidin-4-yl]amino]methyl]phenyl]acetic acid], in assay [1], the IC50 was under 500 nM. Further, in assay [2], the “Gal4 activity range @ 0.1 μM (% inhibition)” value is reported as over 50 % inhibition.

For the molecule `O=C(O)Cc1ccc(Cn2ccc3c(N4CCC[C@@H]4c4ccc(C(F)(F)F)cc4)ncnc32)cc1` [Example 195, 2-[4-[[4-[(2R)-2-[4-(trifluoromethyl)phenyl]pyrrolidin-1-yl]pyrrolo[2,3-d]pyrimidin-7-yl]methyl]phenyl]acetic acid], the IC50 in assay [1] is under 500 nM. For the same molecule, in assay [2], the “Gal4 activity range @ 0.1 μM (% inhibition)” value is on record as over 80 % inhibition.

With `NC(=O)Cc1ccc(Cn2ccc3c(N4CCC[C@@H]4c4ccc(C(F)(F)F)cc4)ncnc32)cc1` [Example 196, 2-[4-[[4-[(2R)-2-[4-(trifluoromethyl)phenyl]pyrrolidin-1-yl]pyrrolo[2,3-d]pyrimidin-7-yl]methyl]phenyl]acetamide], the IC50 in assay [1] was under 500 nM. Also, the “Gal4 activity range @ 0.1 μM (% inhibition)” value in assay [2] is over 80 % inhibition.

With `CS(=O)(=O)N1CCC(CNc2ncnc(N3CCC[C@@H]3c3ccc(C(F)(F)F)cc3)c2F)CC1` [Example 197, 5-fluoro-N-[(1-methylsulfonyl-4-piperidyl)methyl]-6-[(2R)-2-[4-(trifluoromethyl)phenyl]pyrrolidin-1-yl]pyrimidin-4-amine], the IC50 in assay [1] was under 500 nM. In assay [2], the “Gal4 activity range @ 0.1 μM (% inhibition)” value is over 80 % inhibition and the “Gal4 activity range @ 1 μM (% inhibition)” value is reported as over 80 % inhibition.

Take `CC1(CNc2ncnc(N3CCC[C@@H]3c3ccc(C(F)(F)F)cc3)c2F)COC1` [Example 198, 5-fluoro-N-[(3-methyloxetan-3-yl)methyl]-6-[2-[4-(trifluoromethyl)phenyl]pyrrolidin-1-yl]pyrimidin-4-amine]: in assay [1], the IC50 is under 500 nM. Further, in assay [2], the “Gal4 activity range @ 0.1 μM (% inhibition)” value is given as over 20 % inhibition and the “Gal4 activity range @ 1 μM (% inhibition)” value was over 80 % inhibition.

Turning to `CC1(CNc2ncnc(N3CCC[C@@H]3c3ccc(C(F)(F)F)cc3)c2F)CCCO1` (stereo partly drawn) [Example 199, 5-fluoro-N-[(2-methyltetrahydrofuran-2-yl)methyl]-6-[(2R)-2-[4-(trifluoromethyl)phenyl]pyrrolidin-1-yl]pyrimidin-4-amine], in assay [1], the IC50 is under 1000 nM. In assay [2], the “Gal4 activity range @ 0.1 μM (% inhibition)” value was over 20 % inhibition and the “Gal4 activity range @ 1 μM (% inhibition)” value is given as over 80 % inhibition.

In the case of `OC1CCCCC1CNc1ncnc(N2CCC[C@@H]2c2ccc(C(F)(F)F)cc2)c1F` (stereo partly drawn) [Example 200, 2-[[[5-fluoro-6-[(2R)-2-[4-(trifluoromethyl)phenyl]pyrrolidin-1-yl]pyrimidin-4-yl]amino]methyl]cyclohexanol], the IC50 in assay [1] is under 1000 nM. For the same molecule, in assay [2], the “Gal4 activity range @ 0.1 μM (% inhibition)” value is over 20 % inhibition and the “Gal4 activity range @ 1 μM (% inhibition)” value is over 80 % inhibition.

Regarding `CC1(CNc2ncnc(N3CCC[C@@H]3c3ccc(C(F)(F)F)cc3)c2F)CCCS1` (stereo partly drawn) [Example 201, 5-fluoro-N-[(2-methyltetrahydrothiophen-2-yl)methyl]-6-[(2R)-2-[4-(trifluoromethyl)phenyl]pyrrolidin-1-yl]pyrimidin-4-amine], in assay [1], the IC50 was under 500 nM. Moreover, in assay [2], the “Gal4 activity range @ 0.1 μM (% inhibition)” value is on record as over 0 % inhibition and the “Gal4 activity range @ 1 μM (% inhibition)” value is reported as over 80 % inhibition.

On to `O=S1(=O)CCOC(CNc2ncnc(N3CCC[C@@H]3c3ccc(C(F)(F)F)cc3)c2F)C1` (stereo partly drawn) [Example 202, N-[(4,4-dioxo-1,4-oxathian-2-yl)methyl]-5-fluoro-6-[(2R)-2-[4-(trifluoromethyl)phenyl]pyrrolidin-1-yl]pyrimidin-4-amine], for which the IC50 in assay [1] is under 10000 nM. Besides, in assay [2], the “Gal4 activity range @ 0.1 μM (% inhibition)” value is recorded as over 0 % inhibition and the “Gal4 activity range @ 1 μM (% inhibition)” value is over 50 % inhibition.

With `Fc1c(NCc2cccs2)ncnc1N1CCC[C@@H]1c1ccc(C(F)(F)F)cc1` [Example 203, 5-fluoro-N-(2-thienylmethyl)-6-[(2R)-2-[4-(trifluoromethyl)phenyl]pyrrolidin-1-yl]pyrimidin-4-amine], the IC50 in assay [1] was under 2000 nM. Also, in assay [2], the “Gal4 activity range @ 0.1 μM (% inhibition)” value is recorded as over 0 % inhibition and the “Gal4 activity range @ 1 μM (% inhibition)” value is reported as over 50 % inhibition.

In the case of `O=C(O)CC1CCC(CNc2ncnc(N3CCOC[C@@H]3c3ccc(C(F)(F)F)cc3)c2F)CC1` (stereo partly drawn) [Example 205, 2-[4-[[[5-fluoro-6-[(3S)-3-[4-(trifluoromethyl)phenyl]morpholin-4-yl]pyrimidin-4-yl]amino]methyl]cyclohexyl]acetic acid], the IC50 in assay [1] was under 500 nM. Also, in assay [2], the “Gal4 activity range @ 0.1 μM (% inhibition)” value was over 50 % inhibition and the “Gal4 activity range @ 1 μM (% inhibition)” value is over 80 % inhibition.

In the case of `NC(=O)CC1CCC(CNc2ncnc(N3CCOC[C@@H]3c3ccc(C(F)(F)F)cc3)c2F)CC1` (stereo partly drawn) [Example 206, 2-[4-[[[5-fluoro-6-[(3S)-3-[4-(trifluoromethyl)phenyl]morpholin-4-yl]pyrimidin-4-yl]amino]methyl]cyclohexyl] acetamide], the IC50 in assay [1] was under 1000 nM. Besides, in assay [2], the “Gal4 activity range @ 0.1 μM (% inhibition)” value is reported as over 20 % inhibition and the “Gal4 activity range @ 1 μM (% inhibition)” value is recorded as over 80 % inhibition.

For the molecule `O=C(O)Cc1ccc(CNc2ncnc(N3CCC[C@@H]3c3ccc(C(F)(F)F)cc3)c2F)s1` [Example 207, 2-[5-[[[5-fluoro-6-[(2R)-2-[4-(trifluoromethyl)phenyl]pyrrolidin-1-yl]pyrimidin-4-yl]amino]methyl]-2-thienyl]acetic acid], in assay [1], the IC50 is under 500 nM. Besides, in assay [2], the “Gal4 activity range @ 0.1 μM (% inhibition)” value was over 20 % inhibition and the “Gal4 activity range @ 1 μM (% inhibition)” value is reported as over 80 % inhibition.

Consider `Fc1c(NCC2CCOCC2)ncnc1N1CCC[C@@H]1c1ccc(C(F)(F)F)cc1` [Example 208, 5-fluoro-N-(tetrahydropyran-4-ylmethyl)-6-[(2R)-2-[4-(trifluoromethyl)phenyl]pyrrolidin-1-yl]pyrimidin-4-amine], for which the IC50 in assay [1] is under 500 nM. Also, in assay [2], the “Gal4 activity range @ 0.1 μM (% inhibition)” value was over 50 % inhibition and the “Gal4 activity range @ 1 μM (% inhibition)” value is given as over 80 % inhibition.

With `Cc1ccc(CNc2ncnc(N3CCCC3(C)c3ccc(C(F)(F)F)cc3)c2F)cn1` (stereo not drawn) [Example 209, 5-fluoro-N-[(6-methyl-3-pyridyl)methyl]-6-[2-methyl-2-[4-(trifluoromethyl)phenyl]pyrrolidin-1-yl]pyrimidin-4-amine], the IC50 in assay [1] is under 1000 nM. In assay [2], the “Gal4 activity range @ 0.1 μM (% inhibition)” value is reported as over 20 % inhibition and the “Gal4 activity range @ 1 μM (% inhibition)” value is reported as over 50 % inhibition.

As for `Cc1ccc(CNc2ncnc(N3CCC[C@@H]3c3ccc(C(F)(F)F)cc3F)c2F)cn1` [Example 210, 5-fluoro-6-[(2R)-2-[2-fluoro-4-(trifluoromethyl)phenyl]pyrrolidin-1-yl]-N-[(6-methyl-3-pyridyl)methyl]pyrimidin-4-amine], in assay [1], the IC50 is under 1000 nM. In assay [2], the “Gal4 activity range @ 0.1 μM (% inhibition)” value is reported as over 50 % inhibition and the “Gal4 activity range @ 1 μM (% inhibition)” value is recorded as over 80 % inhibition.
